Laboratory results: US8597264B2, “Apparatuses, methods, and compositions for the treatment and prophylaxis of chronic wounds” (KCI Licensing, Inc., priority 2011, dated 2013)

How the values were obtained:
MMP-9 = molecular target: T1, MMP-9 (Homo sapiens, UniProt P14780); test: MMP-9 Colorimetric Drug Discovery Kit (Biomol): MMP activity reduction by dressings; format: biochemical; settings: compared to control samples with no MMP-9 inhibitor activity
T1 construct: purchased Biomol
Text: A National Diagnostics Hydrogen Peroxide Assay Kit was used to evaluate the antioxidant properties of foam pads and the formulated coated foam pads containing alpha-lipoic acid. Foam pads coated only with gelatin were used as controls. FIG. 2 is a graph showing the percentage of hydrogen peroxide reduction due to reaction with alpha-lipoic acid. An MMP-9 Colorimetric Drug Discovery Kit (Biomol) was used to evaluate the MMP inhibiting/inactivating ability of the formulated foam pads containing alpha-lipoic acid/gelatin (ALA) and gelatin alone (GF GEL). The controls were uncoated foam pads and known potent MMP inactivating drug, NNGH (C13H20N2O5S, available from Enzo® Life Sciences). […] FIG. 4 is a graph showing the release of alpha-lipoic acid from the coating on the foam pads. The coating delivers approximately 70% of the total alpha-lipoic acid within the first day, while the remaining alpha-lipoic acid is released during the next 2-3 days.
Coated polyurethane foam (GranuFoam®) scaffolds described above in Examples 1-2 were further assayed for their ability to reduce MMP activity as compared to non-coated collagen based scaffold such as the Biostep™ and Promogran™ products.

[1] = Release of alpha-lipoic acid from the coating on foam pads; format: physicochemical; settings: coating on foam pads (FIG. 4)
Text: Polyurethane open-cell reticulated foam pads were selected as the scaffold and were immersed in a solution containing 1.5 wt % of alpha-lipoic acid and 4.5 wt % 225-bloom beef gelatin (and, where applicable, 0.3% EDTA). Gelatin was used as a biocompatible binding agent with good oxygen barrier and sustained release properties for alpha-lipoic acid as well as for its ability to act as a sacrificial substrate for surrounding gelatinases. Alpha-lipoic acid was pre-dissolved in ethanol and then mixed into the final solution. The foam pads were immersed for a sufficient amount of time to coat the pathways formed within the open-cell reticulated foam as described above with respect to the scaffold. After immersion, the foam pads were withdrawn, compressed to remove excess solution, and dried to a constant weight. In some cases, sodium benzoate was added to the formulation as a preservative. Dried foams comprised, by weight, 2% alpha-lipoic acid, 6% gelatin and, where applicable, 0.4% EDTA.
A National Diagnostics Hydrogen Peroxide Assay Kit was used to evaluate the antioxidant properties of foam pads and the formulated coated foam pads containing alpha-lipoic acid. Foam pads coated only with gelatin were used as controls. FIG. 2 is a graph showing the percentage of hydrogen peroxide reduction due to reaction with alpha-lipoic acid. […]

T1 sequence (P14780 107-444 limits assumed): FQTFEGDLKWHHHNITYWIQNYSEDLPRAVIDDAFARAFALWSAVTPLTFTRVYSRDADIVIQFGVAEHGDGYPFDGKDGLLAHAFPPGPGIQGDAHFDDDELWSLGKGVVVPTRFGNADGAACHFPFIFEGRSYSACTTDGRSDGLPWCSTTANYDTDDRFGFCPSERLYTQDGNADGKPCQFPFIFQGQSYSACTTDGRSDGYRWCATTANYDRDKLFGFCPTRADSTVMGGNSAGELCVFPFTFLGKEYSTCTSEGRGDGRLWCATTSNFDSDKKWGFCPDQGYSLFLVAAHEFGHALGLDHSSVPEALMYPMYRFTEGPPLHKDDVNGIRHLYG

Compound | % MMP-9 activity reduction (MMP-9; Table 1 experiment) [%] | % MMP-9 activity reduction (MMP-9; Table 2 experiment) [%] | time over which the remaining alpha-lipoic acid is released ([1]; after the first day) [days] | share of the total alpha-lipoic acid delivered by the coating ([1]; within the first day)
COc1ccc(S(=O)(=O)N(CC(=O)NO)CC(C)C)cc1 [NNGH] | 90.2 | 103.8 |  | 
O=C(O)CCCCC1CCSS1 (stereo not drawn) [alpha-lipoic acid] |  |  | 2 to 3 | approximately 70%
